Measured values as given in patent US20090227606A1, “Methods for Preventing or Treating Acute and Chronic Pain” (priority 2006, published 2009).
“Also recorded” adds a separate entry of the source. Read-outs that look alike come from different tables or passages of the source.

Key:
GLT-1 = conditions: Zelenaia et al. 2000, cited from earlier work; for effect on db-cAMP-dependent GLT-1 expression: db-cAMP-treated astrocytes; for GLT-1 induction in cultured astrocytes: Schlag et al. 1998
[1] = tested on: primary cultured astrocytes; assay: Astrocyte morphology and process length, phase contrast microscopy; format: cell-based, rat
Procedure: Astrocyte cultures were prepared from the cortices of neonatal rats (1-3 days old) using the Worthington Papain Dissociation System (Worthington Biochemical Corporation, Lakewood, N.J.) according to the method of Huettner and Baughman (1986. J. Neurosci. 6:3044-3060). Briefly, cortices of neonatal rats were dissected, treated with papain (20 U/ml), dissociated by trituration and plated in 75 cm^2 flasks in Dulbecco's modified Eagle's medium (DMEM) supplemented with 10% charcoal-stripped fetal bovine serum (FBS), 1% GlutaMax and 1% penicillin/streptomycin (P/S, 100 U/ml penicillin, 100 μg/ml streptomycin, P/S). Cells were fed twice weekly until they reached confluence (Day in vitro, DIV 10-12) at which point they were mechanically shaken for 1 hr on an orbital shaker to remove any remaining oligodendrocytes and microglia. Subsequently, cultures were treated with trypsin for 30 minutes at 37° C. and re-plated into 6 or 12-well dishes at a density of about 3.0×10^4 cells/cm^2. Resultant cultures were greater than 95% astrocytic as determined by GFAP immunostaining.
(§1) After approximately 14 days (2 days after subplating into plates, DIV 14) astrocytes had formed a confluent monolayer. […] Phase contrast microscopy was then carried out in order to assess the morphology of cells after the various treatments. Length of astrocyte processes was quantified by measuring all processes in 2-3 phase contrast images/group by an independent observer, blinded to the treatment groups using Image J v1.34s (National Institutes of Health, Bethesda, Md.).

GLAST [2] = assay: Immunocytochemistry of cultured astrocytes, GLAST staining; format: cell-based, rat; conditions: treated astrocytes
Procedure: Primary astrocyte-enriched cultures were plated onto sterile 18 mm glass coverslips. After three washes in PBS, cells were permeabilized in 5% glacial acetic acid/95% ethanol (acid-alcohol) for 10 minutes. After washing, cells were incubated in a 1% normal goat serum for 30 minutes and then overnight at 4° C. in primary mouse anti-GFAP (1:500), rabbit anti-GLT-1 (1:500) or guinea pig anti-GLAST (1:2000). The following day, cells were washed and then incubated for 2 hours at room temperature with goat anti-mouse Alexa Fluor™-555 (Invitrogen Corporation, Carlsbad, Calif.) goat anti-guinea pig Alexa Fluor™-488 (Invitrogen Corporation, Carlsbad, Calif.) or goat anti-rabbit Alexa Fluor™-488 (Invitrogen Corporation, Carlsbad, Calif.; all at 1:250). Finally, cells were post-fixed in acid-alcohol and mounted with Vectashield (Vector Labs, Burlingame, Calif.) containing 4′,6-diamidino-2-phenylindole dihydrochloride hydrate (DAPI, Sigma Chemical Co., St Louis, Mo.), in order to visualize cell nuclei. The sections were examined with a fluorescence microscope, and images were captured with a Q-Fire cooled camera (Olympus, Melville, N.Y.). Confocal microscopy was also performed using a Zeiss LSM 510 Meta confocal microscope (Carl Zeiss AG, Oberkochen, Germany). Merged color images were processed using Adobe Photoshop 7.0 (Adobe Systems, San Jose, Calif.).

GLT-1 mRNA = assay: Real Time RT-PCR of cultured astrocytes, GLT-1 mRNA; format: cell-based, rat; conditions: propentofylline 10, 100, 1000 μM; db-cAMP 250 μM; relative to GAPDH
Procedure: as §1
(§2) Total RNA was isolated from astrocyte cultures using the Qiagen RNeasy mini-kit (Qiagen Inc., Valencia, Calif.) according to the manufacturer's protocol for isolation of total RNA from animal cells. Reverse transcription (RT) was carried out using the high-capacity cDNA archive kit (Applied Biosystems, Foster City, Calif.) according to the vendor's protocol. Real-time RT-PCR reactions were carried out in a total reaction volume of 25 μL containing a final concentration of 1.5 U Platinum Taq DNA polymerase (Invitrogen Corporation, Carlsbad, Calif.); 20 mM Tris HCl (pH 8.4); 50 mM KCl; 3 mM MgCl2; 200 μM dGTP, dCTP, and dATP; 400 μM dUTP and 1 U of UDG (uracyl DNA glycosylase); 900 nM of forward and reverse primers; 300 nM Taqman probe; and 5 μL of cDNA (50 ng) from the RT step. The iCycler™ Multicolor Real-Time PCR detection system (Bio-Rad Laboratories, Hercules, Calif.) was used to quantify PCR product. The fluorescence and threshold values (CT) obtained were used to compare the relative amount of target mRNA in experimental groups to those of controls using the 2^−ΔΔC^T method (Livak, K. J. and T. D. Schmittgen. 2001. Methods 25:402-408). Each experiment was run twice and samples were run in duplicate. For each sample, the mean CT value for the control gene (GAPDH) was then subtracted from the mean CT value for the gene of interest (GLT-1, GLAST) to obtain a ΔCT value. The ΔCT values for the control group (untreated) were then averaged and subtracted from the ΔCT for the experimental groups to obtain the ΔΔCT. The relative fold change from control was then expressed by calculation of 2^−ΔΔC^T for each sample and the results are expressed as the group mean fold change±SEM.

GLAST mRNA = assay: Real Time RT-PCR of cultured astrocytes, GLAST mRNA; format: cell-based, rat; conditions: propentofylline 10, 100, 1000 μM; db-cAMP 250 μM; relative to GAPDH
Procedure: as §1
as §2, with “The ΔCT values for the control group (untreated) were then averaged and subtracted from the ΔCT for the experimental groups to obtain the ΔΔCT.” left out

GLAST [3] = assay: Western blot of cultured astrocytes, GLAST protein; format: cell-based, rat; conditions: 3 or 7 days, normalized to β-actin
Procedure: as §1
Cells were scraped into PBS containing a protease inhibitor cocktail (1:1000, Sigma Chemical Co., St. Louis, Mo.) and then lysed by sonication in 5 one-second pulses. The samples were stored at −80° C. until use. Total protein was determined using the Lowry method (DC assay, Bio-Rad, Hercules, Calif.). Forty micrograms of protein (diluted in sample buffer and boiled) and standard protein markers were subjected to SDS/7.5% polyacrylamide gel electrophoresis and transferred to polyvinylidene difluoride (PVDF) membranes. Nonspecific binding was blocked by incubation with 5% milk/PBS-Tween at room temperature for 1 hour followed by incubation overnight at 4° C. with rabbit anti-GLT-1 (1:500) or guinea pig anti-GLAST (1:2500). The following day, blots were washed and incubated for 1 hour at room temperature with goat anti-rabbit HRP-conjugated secondary (1:3000) or goat anti-guinea pig HRP-conjugated secondary antibody (1:5000) and visualized with enhanced chemiluminescence (ECL). Images were obtained using the Typhoon Imaging System (Amersham-GE Healthcare, Piscataway, N.J.). Finally, blots were incubated for 15 minutes in stripping buffer and reprobed with a monoclonal mouse anti-β-actin antibody (1:10,000) as a loading control. Densitometric analysis was performed using ImageQuant 5.2 (Molecular Dynamics, GE Healthcare, Piscataway, N.J.).

MIP-2 (CXCL2) = assay: ELISA of MIP-2 release from cultured astrocytes; format: cell-based, rat; conditions: seven days, LPS 1 μg/ml; propentofylline 1000 μM; db-cAMP 250 μM
Procedure: as §1
(§3) Standard ELISA was performed for quantitative determination of MCP-1 and MIP-2 protein in cell culture supernatant. Assays were carried out according to the manufacturer's specifications (Biosource, Camarillo, Calif.) using the sandwich enzyme immunoassay procedure. Optical density at 450 nm was obtained using the MRX Revelations program (Dynex Technologies, Chantilly, Va.) and relative protein concentrations were determined by comparing samples to the standard curve generated.

MCP-1 (CCL2) = assay: ELISA of MCP-1 release from cultured astrocytes; format: cell-based, rat; conditions: seven days
Procedure: as §1, §3

[4] = tested on: Na+-dependent glutamate transport; conditions: db-cAMP, Schlag et al. 1998; cited from earlier work

CCCCCCOC(=O)[C@]1(O)C[C@@H]2O[C@@]1(C)n1c3ccccc3c3c4c(c5c6ccccc6n2c5c31)C(=O)NC4 [KT5720]
effect on db-cAMP-dependent GLT-1 expression (GLT-1): blocks induction of GLT-1 protein

COc1cccc(-c2cc(=O)c3ccccc3o2)c1N [PD98059]
effect on db-cAMP-dependent GLT-1 expression (GLT-1): partially attenuates

S=C(S)N1CCCC1 [PDTC]
effect on db-cAMP-dependent GLT-1 expression (GLT-1): inhibited db-cAMP-mediated increases in GLT-1 expression

CCCC(=O)Nc1ncnc2c1ncn2[C@@H]1O[C@@H]2COP(=O)(O)O[C@H]2[C@H]1OC(=O)CCC [db-cAMP, dibutyryl cyclic-adenosine-5′,3′-monophosphate]
astrocyte morphology ([1]; 3 days or 7 days of treatment, phase contrast microscopy): extend fewer, longer processes
length of astrocyte processes ([1]; 7 days, 250 μM db-cAMP vs. 1000 μM propentofylline): significantly longer processes than propentofylline; also recorded: significantly longer processes than PPF
GLAST staining (GLAST [2]): slightly increased GLAST staining
GLT-1 mRNA level, in words (GLT-1 mRNA): mimicked
GLAST mRNA level, in words (GLAST mRNA): mimicked
GLAST protein level, in words (GLAST [3]): greater increase in GLAST than high dose propentofylline
LPS-induced MIP-2 (CXCL2) release (MIP-2 (CXCL2)): had no effect on LPS-induced chemokine release
LPS-induced MCP-1 (CCL2) release (MCP-1 (CCL2); LPS 1 μg/ml, propentofylline 1000 μM, db-cAMP 250 μM): had no effect on LPS-induced chemokine release
basal MCP-1 (CCL2) release, treatment alone (MCP-1 (CCL2); without LPS): significantly increased MCP-1 (CCL2) above basal levels
increase in glutamate transport activity [4]: 2 fold
sensitivity of increased glutamate uptake to DHK [4]: DHK-insensitive
GLT-1 induction in cultured astrocytes (GLT-1): induced high levels of GLT-1 protein expression
GLT-1 induction in cultured astrocytes (GLT-1; listed as dibutyryl-cAMP): induce astrocytic maturation and GLT-1 induction
